Measured values from patent publication US10947503B2, “Method for modifying T cell population” (International Institute of Cancer Immunology, Inc., priority 2014, dated 2021).

Columns and labels:
[1] = system: human CD4+CD45RO+ T cells; assay: Suppression of RDH10 expression by shRNA: composition of T cell population; assay type: cell-based; details: compared with T cell population expressing control shRNA
Text: A construct to express an shRNA targeting retinol dehydrogenase 10 and consisting of a sequence set forth in SEQ ID NO:18 (RDH10-targeting shRNA) was introduced into human CD4^+CD45RO^+ T cells. Specifically, using a lentivirus vector system, packaging cells (293T cell line) were co-transfected with a vector in which a DNA consisting of a nucleotide sequence of SEQ ID NO:19 was incorporated into a cloning site and a packaging vector to produce a recombinant virus, and the human CD4^+CD45RO^+ T cells were infected with the recombinant virus. Integration of the shRNA expression construct into a chromosome was confirmed based on the expression of GFP as a reporter which was located downstream of the shRNA expression construct. In the T cell population in which the RDH10-targeting shRNA was expressed by such a method, the proportion of terminal effector cells ([…]) was decreased and the proportion of central memory cells (CD127^+, CD62L^+) was increased, as compared with a T cell population in which a control shRNA (SEQ ID NO:20) was expressed by the same method (FIG. 2).

[2] = system: human CD4+CD45RO+ T cells; assay: Modulation of T cell differentiation by RAR agonists and antagonists; assay type: cell-based; details: 8 days culture, vs DMSO
Text: Human CD4^+CD45RO^+ T cells were stimulated with an anti-CD3/CD28 antibody and IL-2, and cultured in the presence of DMSO as a control, or various RAR agonists (FIG. 30) or RAR antagonists (FIG. 31) for 8 days.

[3] = system: human CD4+CD45RO+ T cells; assay: Division ability and proliferation ability of memory T cells after re-stimulation; assay type: cell-based; details: 8 days culture, re-stimulated with anti-CD3/CD28 antibody and IL-2, or IL-7
Procedure: Human CD4^+CD45RO^+ T cells were stimulated with an anti-CD3/CD28 antibody, cultured in the presence of DMSO (control), retinoic acid or an RAR antagonist (LE540) for 8 days, re-stimulated with an anti-CD3/CD28 antibody and IL-2, or IL-7, and cultured. The division ability and proliferation ability of the T cells were evaluated. For evaluation of the division ability, Cell Trace (trade name) Violet Cell Proliferation Kit (manufactured by Life Technologies) was used. As a result, when the differentiation of T cells was enhanced by retinoic acid, both the division ability and the proliferation ability were decreased, whereas when the differentiation was suppressed by the RAR antagonist, both the division ability and the proliferation ability were increased (FIG. 21).

[4] = system: human CD4+CD45RO+ T cells; assay: Ability to form memory T cell population after re-stimulation; assay type: cell-based; details: 8 days culture, re-stimulated and cultured for 7 days
Text: Human CD4^+CD45RO^+ T cells were stimulated with an anti-CD3/CD28 antibody, cultured in the presence of DMSO (control), retinoic acid or an RAR antagonist (LE540) for 8 days, and re-stimulated and cultured with an anti-CD3/CD28 antibody and IL-2, or IL-7 for 7 days. The subsets of the T cells were identified.

[5] = system: Tumor cells expressing both WT1 protein and luciferase; assay: Anti-tumor immunity induction with human WT1 peptide and RAR antagonist in NOG mice; assay type: in vivo, mouse; details: for survival period: intraperitoneal, compared with control (DMSO)
Procedure: Tumor cells expressing both WT1 protein and luciferase were subcutaneously implanted into a ventral part of NOD/Shi-scid, IL-2Rγnull mice (NOG mice). Three days after the implantation, 10^4 human WT1332-specific CD4^+ T cells (GPP positive) were injected intravenously (day 0). Eight hours after the intravenous injection, DMSO (control), retinoic acid or LE540 was administered intraperitoneally. One day after the intravenous injection, CD3^+ T cells were removed, and 2×10^6 human peripheral blood mononuclear cells which had been pulsed with the human WT1332 peptide were injected intravenously (day 1). Then, a survival period was observed. In addition, the amount of tumor was determined every week by administering luciferin which was a substrate for luciferase and measuring the intensity of emission induced by luciferase from outside the body.

[6] = system: human CD4+CD45RO+ T cells; assay: Resistance to apoptosis after anti-Fas antibody (7C11) stimulation; assay type: cell-based; details: 8 days culture, then anti-Fas antibody
Procedure: Human CD4^+CD45RO^+ T cells were cultured in the presence of DMSO (control), retinoic acid or an RAR antagonist (LE540) for 8 days, and then stimulated with an anti-Fas antibody (7C11). The proportion of apoptotic cells and the proportion of living cells were determined and analyzed. As a result, the apoptotic cells were increased and the living cells were decreased by enhancing the differentiation of cells by retinoic acid. In contrast, when the differentiation was suppressed by the RAR antagonist, the apoptotic cells were decreased and the living cells were increased (FIG. 20).

[7] = system: human CD4+CD45RO+ T cells; assay: Enhancement of T cell differentiation by retinoic acid; assay type: cell-based; details: vs DMSO; stimulation with IL-2, anti-CD3/CD28 antibody, or both
Text: Human CD4^+CD45RO^+ T cells were stimulated by various methods (IL-2, anti-CD3/CD28 antibody, and anti-CD3/CD28 antibody and IL2), and cultured in the presence of DMSO (control) or all-trans retinoic acid (hereinafter retinoic acid used in all Examples described below is all-trans retinoic acid). As a result, in the cell population cultured in the presence of retinoic acid, the proportion of central memory cells (upper right in a graph) was decreased, and the proportion of terminal effector cells (left lower in a graph) was increased (FIG. 19).

[8] = system: human CD4+CD45RO+ T cells; assay: Culture with anti-CD3, anti-CD28, IL-2 and retinol for a week: cell number and intracellular cytokine assay (IFN-γ); assay type: cell-based; details: various concentrations of retinol, one week; retinol concentration-dependent
Procedure: The RDH10-targeting shRNA (sh #10-2, SEQ ID NO:18), or an shRNA targeting luciferase (sh-luc, SEQ ID NO:20) as a control was introduced into human CD4^+CD45RO^+ T cells using a lentivirus vector. In the same way, a lentivirus vector in which an RDH10 gene was incorporated was introduced into human CD4^+CD45RO^+ T cells to produce RDH10 high-expression T cells.
These cells were cultured in the presence of an anti-CD3 antibody, an anti-CD28 antibody and IL-2 together with various concentrations of retinol (all-trans type) for a week. Then, the number of cells was measured and at the same time, the frequency of cells producing IFN-γ was determined by an intracellular cytokine assay.

[9] = system: CD4+ T cells with human WT1332-specific TCR gene; assay: WT1332-specific TCR-introduced CD4+ T cells: memory proportion and proliferation on re-stimulation; assay type: cell-based
Procedure: CD4^+ T cells into which a human WT1332-specific TCR gene was introduced were stimulated with human WT1332, and cultured in the presence of DMSO (control), retinoic acid or an RAR antagonist (LE540). As a result, when the T cells were cultured in the presence of the RAR antagonist, the proportion of memory-type CD4^+ T cells was increased (FIG. 24). Further, when the T cell population cultured in the presence of the RAR antagonist was re-stimulated with PBMC which had been pulsed with human WT1332, and cultured (T cell: 30,000 cells/well; PBMC: 100,000 cells/well; […]

[10] = system: human CD4+ T cells transferred into NOG mouse; assay: Reformation ability of cultured T cells in body of immunodeficient mouse; assay type: in vivo; details: T cells in spleen 4 weeks after transfer
Procedure: Human CD4^+CD45RO^+ T cells were stimulated with an anti-CD3/CD28 antibody, cultured in the presence of DMSO (control), retinoic acid or an RAR antagonist (LE540) for 8 days, and then transferred together with human PBMC from which T cells were removed into the body of an immunodeficient mouse lacking T cells, B cells and NK cells (NOG mouse). After 4 weeks, T cells in the spleen of the mouse were analyzed.

[11] = system: terminal effector fraction of human WT1332-specific CD4+ T cell clone; assay: Induction of memory T cells from terminal effector T cells; assay type: cell-based
Text: A terminal effector fraction contained in a human WT1332-specific CD4+ T cell clone derived from a single cell was stimulated with dendritic cells which had been pulsed with human WT1332, and cultured in the presence of DMSO (control), retinoic acid or an RAR antagonist (LE540) for 7 days. Then, the cells were labelled with CFSE, re-stimulated with dendritic cells which had been pulsed with human […], and further cultured in the presence of DMSO (control), retinoic acid or an RAR antagonist (LE540). After culturing for 4 or 6 days, the cells were subjected to an FACS analysis and a ^3H-thymidine incorporation assay (cell proliferation assay).

Compound: RDH10-targeting shRNA: shRNA targeting retinol dehydrogenase 10, sequence SEQ ID NO:18, expressed from a lentivirus vector (GUACACUUCUGGGCCACUGAACUUCCUGUCAUUUAGUGGUCCAGAAGUGUGC)
- proportion of central memory cells (CD127+, CD62L+) [1]: increased
- proportion of terminal effector cells [1]: decreased

Compound: CCCCCCCCc1ccc(-c2ccc(C(=O)O)cc2)cc1 [AC55649]
- expression of CD62L [2]: decreased
- proportion of memory T cells (CD62L+CD127+ cells) [2]: decreased

Compound: CC1(C)CC=C(c2cnc3ccccc3c2)c2cc(C(=O)Nc3ccc(C(=O)O)cc3)ccc21 [BMS195614]
- expression of CD62L [2]: increased
- proportion of memory T cells (CD62L+CD127+ cells) [2]: increased

Compound: CC1(C)CCC(C)(C)c2cc(C3(c4ccc5cc(C(=O)O)ccc5c4)SCCS3)ccc21 [MM11253]
- expression of CD62L [2]: increased
- proportion of memory T cells (CD62L+CD127+ cells) [2]: increased

Compound: CC1=C(/C=C/C(C)=C/C=C/C(C)=C/C(=O)O)C(C)(C)CCC1 [retinoic acid, all-trans retinoic acid]
- division ability of T cells [3]: decreased
- proliferation ability of T cells [3]: decreased
- appearance frequency of memory T cells [4]: low
- survival period [5]: shortened
- expression of CD62L [2]: decreased
- proportion of memory T cells (CD62L+CD127+ cells) [2]: decreased
- apoptotic cells [6]: increased
- living cells [6]: decreased
- proportion of central memory cells [7]: decreased
- proportion of terminal effector cells [7]: increased

Compound: CC1=C(/C=C/C(C)=C/C=C/C(C)=C/CO)C(C)(C)CCC1 [retinol, all-trans retinol]
- IFN-γ producing cells [8]: increased
- number of cells [8]: increased

Compound: CN1c2cc3c(cc2N=C(c2ccc(C(=O)O)cc2)c2ccc4ccccc4c21)C(C)(C)CCC3(C)C [LE540]
- division ability of T cells [3]: increased
- proliferation ability of T cells [3]: increased
- appearance frequency of memory T cells [4]: high frequency
- tumor size (-fold increase relative to day 0) ([5]; day 21, compared with DMSO group and retinoic acid group): significantly small
- survival period [5]: extended
- expression of CD62L [2]: increased
- proportion of memory T cells (CD62L+CD127+ cells) [2]: increased
- apoptotic cells [6]: decreased
- living cells [6]: increased
- proliferation ability after re-stimulation with WT1332-pulsed PBMC ([9]; compared with cells cultured with DMSO or retinoic acid, no IL-2): high proliferation ability
- proportion of memory-type CD4+ T cells ([9]; stimulated with human WT1332): increased
- ability to proliferate in the body of the immunodeficient mouse [10]: high ability to proliferate
- differentiation state of T cells in the mouse [10]: undifferentiated
- induction of central memory CD4+ T cells from terminal effector CD4+ T cells ([11]; LE540): induced again
- generation of memory T cells having high division ability and high proliferation ability ([11]; evaluation after re-stimulation): generated

Compound: CN1c2cc3c(cc2N=C(c2ccc(C(=O)O)cc2)c2ccccc21)C(C)(C)CCC3(C)C [LE135]
- expression of CD62L [2]: increased
- proportion of memory T cells (CD62L+CD127+ cells) [2]: increased

Compound: O=C(O)c1ccc2cc(-c3ccc(O)c(C45CC6CC(CC(C6)C4)C5)c3)ccc2c1 [CD437]
- expression of CD62L [2]: decreased
- proportion of memory T cells (CD62L+CD127+ cells) [2]: decreased

Compound: CC1(C)CCC(C)(C)c2cc(C(=O)Nc3ccc(C(=O)O)cc3)ccc21 [AM580]
- expression of CD62L [2]: decreased
- proportion of memory T cells (CD62L+CD127+ cells) [2]: decreased
